Source: US6548540B2, “Method of treating cancer using dithiocarbamate derivatives” (Charlotte-Mecklenburg Hospital Authority, priority 1998, dated 2003)

Assays:
M1619 melanoma cells = assay: MTT proliferation assay, M1619 melanoma; type: cell-based, human; settings: for antiproliferative activity of gold complexed with disulfiram: M1619, compared with DS 160 nM
Procedure: (§1) Human malignant cell lines were obtained from American Type Tissue Culture Collection (Rockville, Md.). Melanoma cells lines CRL 1585 and 1619 were cultured in RPMI 1640 (GIBCO-BRL, Life Technologies, Grand Island, N.Y.) with 10% FBS and passed with nonenzymatic Cell Dissociation Solution® (Sigma). The prostate adenocarcinoma cell line CRL 1435 (PC-3) was also cultured in RPMI 1640 with 10% FBS but passed with 0.05% trypsin and 0.53 mM EDTA. The squamous lung carcinoma NCI-H520 and the adenosquamous lung carcinoma NCI-H596 cell lines were grown in RPMI 1640 supplemented with 10% FBS, 10 mM HEPES and 1.0 mM sodium pyruvate and passed with trypsin/EDTA. The small cell lung carcinoma NCI-H82 was cultured as a suspension in RPMI 1640 with 10% FBS. All of the above were grown in a 37° C. humidified environment containing 5% CO2/air. The breast carcinoma cell line MDA-MB-453 was grown in a 37° C. humidified environment with free gas exchange with atmospheric air using Leibovitz's L-15 medium with 2 mM L-glutamine and 10% FBS and was passed with trypsin/EDTA.
The effect of disulfiram (0.15 to 5.0 μM), diethyldithiocarbamate (DDC, 1.0 μM) or PDTC (0.625 to 5.0 μM) on proliferation of malignant cell lines was studied in cultures stimulated with 10% FBS. Cell numbers were quantitated 24-72 hours later. In some experiments disulfiram or PDTC were added immediately after cells were plated. In other experiments, cells were plated and allowed to grow for 24-72 hours before fresh media with disulfiram or PDTC was added, and cell numbers were assayed 24-72 hours later.
Finally, a number of dithiocarbamate effects on cells have been attributed to increasing the intracellular levels of copper ions. To further probe the role of copper in mediating cytotoxicity from disulfiram, cells were cultured with or without addition of the impermeate Cu^2+ chelator bathocuprioinedisulfonic acid (BCPS, 100 μM) added to medium to sequester Cu^2+ in the extracellular compartment. Cells were also treated 12 hours with various concentration of disulfiram (0.625 to 5.0 μM) and intracellular copper levels were measured as outlined below.
Proliferation of cultured cells was quantitated using a previously reported calorimetric method based upon metabolic reduction of the soluble yellow tetrazolium dye 3-[4,5-dimethylthiazol]-2yl-2,5-diphenyl tetrazolium bromide (MTT) to its insoluble purple formazan by the action of mitochondrial succinyl dehydrogenase (See, e.g., S. J. Hirst, et al., “Quantifying proliferation of cultured human and rabbit airway smooth muscle in response to serum and platelet derived growth factor,” Am. J. Respir. Cell Mol. Biol. 7:574-581 (1992); R. Dashtaki, et al. R., supra; S. S. Brar, et al., “Requirement for reactive oxygen species in serum-induced and platelet-derived growth factor-induced growth of airway smooth muscle,” J. Biol. Chem. 274:20017-20026 (1999)). This assay empirically distinguishes between dead and living cells. For proliferation studies, cells were seeded into 24-well uncoated plastic plates (Costar) at 50,000 cells per well and cultured with respective media and mitogens.

Melanoma M1585 = assay: MTT proliferation assay, M1585 melanoma; type: cell-based; settings: Homo sapiens; M1585 melanoma cells; read-out: 50% inhibitor concentration (IC50)
Procedure: as §1
The effect of disulfiram (0.15 to 5.0 μM), diethyldithiocarbamate (DDC, 1.0 μM) or PDTC (0.625 to 5.0 μM) on proliferation of malignant cell lines was studied in cultures stimulated with 10% FBS. Cell numbers were quantitated 24-72 hours later. In some experiments disulfiram or PDTC were added immediately after cells were plated. In other experiments, cells were plated and allowed to grow for 24-72 hours before fresh media with disulfiram or PDTC was added, and cell numbers were assayed 24-72 hours later. Synergy was studied between disulfiram and N,N′-bis(2-chloroethyl-N-nitrosourea (carmustine or BCNU, 1.0 to 1,000 μM) or cisplatin (0.1 to 100 μg/ml) added to medium. The effect of metals on disulfiram was studied with 0.2 to 10 μM copper (provided as CuSO4), zinc (as ZnCl2), silver (as silver lactate) or gold (as HAuCl4.3H2O) ions added to growth medium. No pH changes occurred with addition of metal salts to culture medium. To provide a biologically relevant source of copper, in some experiments medium was supplemented with human ceruloplasmin at doses replicating low and high normal adult serum concentrations (250 and 500 μg/ml).
Proliferation of cultured cells was quantitated using a previously reported calorimetric method based upon metabolic reduction of the soluble yellow tetrazolium dye 3-[4,5-dimethylthiazol]-2yl-2,5-diphenyl tetrazolium bromide (MTT) to its insoluble purple formazan by the action of mitochondrial succinyl dehydrogenase (See, e.g., S. J. Hirst, et al., “Quantifying proliferation of cultured human and rabbit airway smooth muscle in response to serum and platelet derived growth factor,” Am. J. Respir. Cell Mol. Biol. 7:574-581 (1992); R. Dashtaki, et al. R., supra; S. S. Brar, et al., “Requirement for reactive oxygen species in serum-induced and platelet-derived growth factor-induced growth of airway smooth muscle,” J. Biol. Chem. 274:20017-20026 (1999)). This assay empirically distinguishes between dead and living cells. For proliferation studies, cells were seeded into 24-well uncoated plastic plates (Costar) at 50,000 cells per well and cultured with respective media and mitogens. After 24-96 hours, medium was removed, cells were washed twice with 1 ml of sterile Dulbecco's modified phosphate buffered saline without Ca^2+ or Mg^2+ (DPBS), the medium was replaced with 1 ml/well fresh medium containing 100 μg/ml MTT, and plates were incubated an additional hour. MTT-containing medium was removed, 0.5 ml dimethylsulfoxide (DMSO) was added to each well, and the absorbance of the solubilized purple formazan dye was measured at 540 nm. A total of 4-6 wells were studied at each treatment condition. Preliminary studies were performed with 50-200 μg/ml MTT incubated for 15 minutes to 3 hours to determine the optimum concentration and incubation time at which the rate of conversion was linear and proportional to the number of cells present. […]

tumor cell lines = assay: Proliferation of tumor cell lines with redox, NO synthase or cyclooxygenase agents (cell line not given); type: cell-based, human
Procedure: Potential redox effects of disulfiram were studied in three sets of experiments. The importance of cellular glutathione (GSH) in mediating or modulating thiocarbamate toxicity was studied by measuring levels of intracellular GSH after treatment with disulfiram. […] Also, to assess whether a nonspecific antioxidant effect of disulfiram or PDTC might account for cellular growth inhibition, we studied the effect of the potent lipophilic antioxidant probucol (1.0 to 1,000 μM) on proliferation of malignant cell lines. […] To explore the role of cyclooxygenase inhibition on tumor cell growth, cells were cultured with or without disulfiram in the presence or absence of the cyclooxygenase-1 (COX1) and cyclooxygenase-2 (COX2) inhibitors indomethacin (5μg/ml) or sodium salicylate (1 mM). To probe whether disulfiram might be inducing growth retardation by interruption or stimulation of NO production, proliferation was studied with and without disulfiram in the presence and absence of the nitric oxide […] inhibitor Nω-nitro-L-arginine added to growth medium (100 μM). […] J. Respir. Cell Mol. Biol. 7:574-581 (1992); […], et al. R., supra; S. S. Brar, et al., “Requirement for reactive oxygen species in serum-induced and platelet-derived growth factor-induced growth of airway smooth muscle,” J. Biol. Chem. 274:20017-20026 (1999)). This assay empirically distinguishes between dead and living cells. For proliferation studies, cells were seeded into 24-well uncoated plastic plates (Costar) at 50,000 cells per well and cultured with respective media and mitogens. […] MTT-containing medium was removed, 0.5 ml dimethylsulfoxide (DMSO) was added to each well, and the absorbance of the solubilized purple formazan dye was measured at 540 nm. A total of 4-6 wells were studied at each treatment condition.

CCN(CC)C(=S)[S-].O.O.O.[Na+] [NaDDC, sodium diethyldithiocarbamate trihydrate]
antiproliferative activity of the thiolate with DTT in medium (M1619 melanoma cells; NaDDC 1 μM plus DTT 100 μM, 48 hours): reduced by low concentrations of DTT

dichloro(diethylthiocarbamyl)gold (II) [AuDS]
antiproliferative activity of gold complexed with disulfiram (M1619 melanoma cells; 48 hr): enhanced antiproliferative activity | antiproliferative activity of gold complexed with disulfiram (M1619 melanoma cells; 48 hr, listed as complex of gold with disulfiram): antiproliferative at nM concentrations

S=C(S)N1CCCC1 [PDTC, Pyrrolidinedithiocarbamate]
IC50 (Melanoma M1585): ~1250 nM

N.N.[Cl][Pt][Cl] [Cisplatin, cisplatin]
A540 of MTT Formazan (M1619 melanoma cells; cisplatin 1 ng/ml + DMSO vehicle, added after 48 hours, additional 24 hours): 1.739 ± 0.041 | A540 of MTT Formazan (M1619 melanoma cells; cisplatin 10 ng/ml + DMSO vehicle, added after 48 hours, additional 24 hours): 1.447 ± 0.047 | A540 of MTT Formazan (M1619 melanoma cells; cisplatin 100 ng/ml + DMSO vehicle, added after 48 hours, additional 24 hours): 1.372 ± 0.052 | A540 of MTT Formazan (M1619 melanoma cells; cisplatin 1,000 ng/ml + DMSO vehicle, added after 48 hours, additional 24 hours): 1.381 ± 0.098

CC(C)(Sc1cc(C(C)(C)C)c(O)c(C(C)(C)C)c1)Sc1cc(C(C)(C)C)c(O)c(C(C)(C)C)c1 [probucol]
growth of tumor cell lines (tumor cell lines; probucol 1.0 to 1,000 μM, data not shown): did not significantly inhibit growth

N=C(NCCC[C@H](N)C(=O)O)N[N+](=O)[O-] [LNAME, Nω-nitro-L-arginine]
increase of cellular growth (tumor cell lines; LNAME alone (100 μM), vs DMSO vehicle control): 23.7±2.3%

Cc1cc(-c2ccc(S(=O)(=O)O)cc2)c2ccc3c(-c4ccc(S(=O)(=O)O)cc4)cc(C)nc3c2n1 [BCPS, bathocuproinedisulfonic acid]
effect of Cu2+ chelator on growth inhibition from disulfiram (M1619 melanoma cells; 1.25 μM disulfiram with 50 or 100 μM BCPS, 48 hr): greatly reduces growth inhibition

O=NN(CCCl)C(=O)NCCCl [Carmustine]
A540 of MTT Formazan (M1619 melanoma cells; carmustine 1 μM + DMSO vehicle, 24 hours): 0.197 ± 0.004 | A540 of MTT Formazan (M1619 melanoma cells; carmustine 10 μM + DMSO vehicle, 24 hours): 0.152 ± 0.011 | A540 of MTT Formazan (M1619 melanoma cells; carmustine 100 μM + DMSO vehicle, 24 hours): 0.020 ± 0.002 | A540 of MTT Formazan (M1619 melanoma cells; carmustine 1,000 μM + DMSO vehicle, 24 hours): 0.003 ± 0.000

[Cl-].[Cl-].[Zn+2] [zinc chloride]
effect of zinc on antiproliferative potential of disulfiram (M1619 melanoma cells; ZnCl2 with 0.625 μM disulfiram, grown 24 hours, additional 24 hr): substantially enhanced

B1: ceruloplasmin: 132-kD glycoprotein carrying 7 copper atoms, the major copper-carrying protein in human plasma (protein, UniProt P00450 20-1065, looked up)
Ceruloplasmin: KEKHYYIGIIETTWDYASDHGEKKLISVDTEHSNIYLQNGPDRIGRLYKKALYLQYTDETFRTTIEKPVWLGFLGPIIKAETGDKVYVHLKNLASRPYTFHSHGITYYKEHEGAIYPDNTTDFQRADDKVYPGEQYTYMLLATEEQSPGEGDGNCVTRIYHSHIDAPKDIASGLIGPLIICKKDSLDKEKEKHIDREFVVMFSVVDENFSWYLEDNIKTYCSEPEKVDKDNEDFQESNRMYSVNGYTFGSLPGLSMCAEDRVKWYLFGMGNEVDVHAAFFHGQALTNKNYRIDTINLFPATLFDAYMVAQNPGEWMLSCQNLNHLKAGLQAFFQVQECNKSSSKDNIRGKHVRHYYIAAEEIIWNYAPSGIDIFTKENLTAPGSDSAVFFEQGTTRIGGSYKKLVYREYTDASFTNRKERGPEEEHLGILGPVIWAEVGDTIRVTFHNKGAYPLSIEPIGVRFNKNNEGTYYSPNYNPQSRSVPPSASHVAPTETFTYEWTVPKEVGPTNADPVCLAKMYYSAVEPTKDIFTGLIGPMKICKKGSLHANGRQKDVDKEFYLFPTVFDENESLLLEDNIRMFTTAPDQVDKEDEDFQESNKMHSMNGFMYGNQPGLTMCKGDSVVWYLFSAGNEADVHGIYFSGNTYLWRGERRDTANLFPQTSLTLHMWPDTEGTFNVECLTTDHYTGGMKQKYTVNQCRRQSEDSTFYLGERTYYIAAVEVEWDYSPQREWEKELHHLQEQNVSNAFLDKGEFYIGSKYKKVVYRQYTDSTFRVPVERKAEEEHLGILGPQLHADVGDKVKIIFKNMATRPYSIHAHGVQTESSTVTPTLPGETLTYVWKIPERSGAGTEDSACIPWAYYSTVDQVKDLYSGLIGPLIVCRRPYLKVFNPRRKLEFALLFLVFDENESWYLDDNIKTYSDHPEKVNKDDEEFIESNKMHAINGRMFGNLQGLTMHVGDEVNWYLMGMGNEIDLHTVHFHGHSFQYKHRGVYSSDVFDIFPGTYQTLEMFPRTPGIWLLHCHVTDHIHAGMETTYTVLQNEDTKSG
effect of ceruloplasmin on antiproliferative activity of disulfiram (M1619 melanoma cells; ceruloplasmin 500 μg/ml with disulfiram, 24 hours): enhance the antiproliferative activity of disulfiram
